Structures are written as SMILES. Where “and” joins values, the source holds several entries; their conditions need not be identical. Equal entries are not always repeated.

One assay deals with inflammation. In words: Carrageenin Assay. It counts as in vivo. Conditions: Rattus norvegicus, po; 50 mg/kg orally by gavage; carrageenin-injected hind paws of rats; read-out: Percent Inhibition. On the procedure:
The compounds were evaluated for antiinflammatory activity in the test method described by C.A. Winter, Proc. Soc. Exp. Biol. Med., 111, 544 (1962). In this test, inflammation is created by injecting carrageenin into the hind paws of rats. Test compounds are administered prior to injection to determine percent inhibition of the subsequent inflammation in comparison with control animals.
In general terms: The carrageenan paw model is a standard test of acute inflammation.

Assay [1] deals with adjuvant-induced arthritis. Nature of the assay: Developing Adjuvant-Induced Arthritis Test in Rats. The assay is classed as in vivo, male Lewis-Wistar rats. To be noted: Rattus norvegicus, po, 720 h, AUC of uninjected paw volumes, Days 16 through 30, read-out: % Inhibition of Uninjected Paw Volume Inflammation; for inhibition in vivo at 50 mg/kg: 50 mg/kg P.O. x 29.
For a further assay, the system named is Dystrophic mice (dy/dy). Nature of the assay: Muscular Dystrophy Animal Model. The assay is classed as in vivo. On the procedure:
Dystrophic mice (dy/dy) were obtained from Jackson Laboratories after weaning (approximately 21 days) and treatment with the compounds shown in Table V was begun at the first sign of dystrophy. The compounds that were tested were administered in the diet and lifespan was measured during the course of treatment. The food and water sources were located in different parts of the cage requiring the animals to walk from the food source to the water source to survive.

The test system of assay [2] is ischemia-induced brain damage in the hippocampal CA1 region. Nature of the assay: Stroke model in rats. The assay is classed as in vivo, Male Wistar rats. Conditions: mean ± standard error, scale 0 = no damage to 3 = severe damage of CA1 layer. The source says: Strokes were produced in rats by occluding the four arteries that supply blood to the brain according to the following procedure. Male Wistar rats were anesthetized with Metofane and placed into a stereotaxic instrument. A longitudinal incision was made on the dorsal surface of the neck. The neck muscles were reflected to expose the dorsal surface of the spinal column. The two vertebral arteries were exposed where they pass through the first cervical vertebra. Both arteries were permanently occluded by the application of electrocautery. After coagulation of the vertebral arteries, the rat was removed from the stereotaxic instrument and the surgical wound was sutured. Two longitudinal incisions were then made on the ventral surface of the neck. The two common carotid arteries were exposed and dissected free from surrounding nerves and connective tissue. An atraumatic clasp, fabricated mainly from silicon rubber tubing, was placed around each carotid artery in a manner such that the vessel was not traumatized or occluded. The surgical wounds were then closed. The atraumatic clasps were designed in such a manner that they could be tightened to occlude the carotid arteries by pulling on a small silastic thread that was allowed to protrude from the wound. Circulation to the brain through the carotids could be restored by relieving the tension on the silastic threads. After the surgery, the rats were allowed to recover for 24 hours.
On the day of testing, compounds were suspended in 2% acacia and were administered orally at various times before stroke induction. Strokes (cerebral ischemia) were induced by tightening the clasps around the carotids for a period of 30 minutes. During this time, rats in which strokes had successfully been produced lost the righting reflex and became unresponsive to stimuli. After 30 minutes of ischemia, tension on the clasps was removed and blood flow to the brain restored. Rats were again treated with compounds on the morning after the stroke. On the third day after the stroke the animals received an overdose of barbituate anesthetic, and the brain was perfused in situ with 10% neutral, buffered formalin. After perfusion with amounts of formalin adequate to fix the brain, the brains were removed and stored in 10% formalin until histological sections could be prepared.
One of the areas of the brain that is most susceptible to ischemia induced damage both in the rat and the human is the CA1 pyramidal cell layer of the hippocampus. In animals that remain unresponsive for the 30 minute period of ischemia, the CA1 pyramidal cell layer is completely destroyed. This layer of cells was examined microscopically in histological sections prepared from the hippocampus. Brain damage was rated according to the following scale: 0 = no damage, completely intact cell layer 1 = mild damage, one-third of CA1 layer dead 2 = moderate damage, two-thirds of CA1 layer dead 3 = severe damage, complete destruction of CA1 layer
Damage in 10-12 sections from each brain was assessed in order to obtain an accurate estimate of damage. An average damage score was calculated for each treatment group. Scores from treated groups were compared statistically with scores from control groups which received only the vehicle (2% acacia) that was used to suspend the compounds. The level of significance was determined using Student's "t-test".

The mark [3] stands for this setting: 100 mg/kg given orally as a suspension in 2% acacia.
Setting [4] is: 0.03 percent by weight of compound in diet.
Setting [5] is: 50 mg/kg given orally as a suspension in 2% acacia.

For `CC(C)(C)c1cc(C=C2SC(=S)N(C3CC3)C2=O)cc(C(C)(C)C)c1O` [Example 18, 5-{[3,5-bis(1,1-dimethylethyl)-4-hydroxyphenyl]methylene}-3-cyclopropyl-2-thioxo-4-thiazolidinone], the inhibition in vivo at 50 mg/kg with inflammation is 22%.
With `CCCCN1CSC(=Cc2cc(C(C)(C)C)c(O)c(C(C)(C)C)c2)C1=O` [Example 16, 5-{[3,5-bis(1,1-dimethylethyl)-4-hydroxyphenyl]methylene}-3-butyl-4-thiazolidinone], the values for the inhibition in vivo at 50 mg/kg (in assay [1]; in the assay with inflammation) were 18% and 40%, respectively.
On to `CC(C)(C)c1cc(C=C2SCN(CCO)C2=O)cc(C(C)(C)C)c1O` [Example 35, 5-{[3,5-bis(1,1-dimethylethyl)-4-hydroxyphenyl]methylene}-3-(2-hydroxyethyl)-4-thiazolidinone], for which, in the assay on Dystrophic mice (dy/dy) (0.05 percent by weight of compound in diet), the “Average Life Span” value amounted to 107 days. In addition, in assay [1] (75 mg/kg P.O. x 29), the inhibition in vivo at 75 mg/kg is 86%. Further, the “Damage Score” value in assay [2] (setting [3]) was 0.9 ± 0.4 (p<0.001).
Consider `CC(C)(C)c1cc(C=C2SCOC2=O)cc(C(C)(C)C)c1O` [Example 17, 4-{[3,5-bis(1,1-dimethylethyl)-4-hydroxyphenyl]methylene}-1,3-oxothiolan-5-one], for which the “Average Life Span” value in the assay with Dystrophic mice (dy/dy) (setting [4]) is 112 days. Besides, the inhibition in vivo at 50 mg/kg stood at 61% in assay [1] and 18% in the assay with inflammation.
On to `CCCN1CSC(=Cc2cc(C(C)(C)C)c(O)c(C(C)(C)C)c2)C1=O` [Example 15, 5-{[3,5-bis(1,1-dimethylethyl)-4-hydroxyphenyl]methylene}-3-propyl-4-thiazolidinone], for which the inhibition in vivo at 50 mg/kg in assay [1] turned out to be 40%; with inflammation, 42%.
For `CN1CSC(=Cc2cc(C(C)(C)C)c(O)c(C(C)(C)C)c2)C1=O` [Example 10, 5-{[3,5-bis(1,1-dimethylethyl)-4-hydroxyphenyl]methylene}-3-methyl-4-thiazolidinone], the “Average Life Span” value in the assay on Dystrophic mice (dy/dy) (setting [4]) is 93 days and 112 days and 90 days and 80 days and 110 days; in the assay on Dystrophic mice (dy/dy) (0.08 percent by weight of compound in diet), 45 days and 67 days; in the assay with Dystrophic mice (dy/dy) (0.3 percent by weight of compound in diet) it was 83 days. Besides, in assay [1], the inhibition in vivo at 50 mg/kg is 57%. Besides, the “Damage Score” value in assay [2] (setting [3]) was 0.75 ± 0.26 (p<0.02).
For `CC(C)(C)c1cc(C=C2C(=O)NC[S+]2[O-])cc(C(C)(C)C)c1O` (centres unmarked) [Example 23, 5-{[3,5-bis(1,1-dimethylethyl)-4-hydroxyphenyl]methylene}-4-thiazolidinone, 1-oxide], the inhibition in vivo at 50 mg/kg in assay [1] turned out to be 28%. Also, the “Damage Score” value in assay [2] (setting [3]) stood at 2.2 ± 0.4.
The matching figures for `CC(C)(C)c1cc(C=C2SCN(CC(N)=O)C2=O)cc(C(C)(C)C)c1O` [Example 5, 5-{[3,5-bis(1,1-dimethylethyl)-4-hydroxyphenyl]methylene}-4-oxo-3-thiazolidineacetamide]: 7% and 1.8 ± 0.4 (p=0.05).
Consider `Cc1cc(C=C2SCN(N(C)C)C2=O)cc(C(C)(C)C)c1O` [Example 62, 5-{[3-(1,1-dimethylethyl)-4-hydroxy-5-methylphenyl]methylene}-3-dimethylamino-4-thiazolidinone], for which, in assay [1], the inhibition in vivo at 50 mg/kg is 11.2%. Besides, the “Damage Score” value in assay [2] (setting [3]) is reported as 1.2 ± 0.3 (p<0.05).
Turning to `CNCCN1CSC(=Cc2cc(C(C)(C)C)c(O)c(C(C)(C)C)c2)C1=O` [Example 28, 5-{[3,5-bis(1,1-dimethylethyl)-4-hydroxyphenyl]methylene}-3-[2-(methylamino)ethyl]-4-thiazolidinone], the inhibition in vivo at 50 mg/kg in assay [1] is 72%. Further, the “Damage Score” value in assay [2] (setting [5]) is recorded as 1.0 ± 0.4 (p=0.009).
For `Cc1cc(C=C2SCN(C)C2=O)cc(C(C)(C)C)c1O` [Example 61, 5-{[3-(1,1-dimethylethyl)-4-hydroxy-5-methylphenyl]methylene}-3-methyl-4-thiazolidinone], in that order: 5.3% and 1.7 ± 0.3 (p=0.03).
Consider `CN1CS(=O)(=O)C(=Cc2cc(C(C)(C)C)c(O)c(C(C)(C)C)c2)C1=O` [Example 13, 5-{[3,5-bis(1,1-dimethylethyl)-4-hydroxyphenyl]methylene}-3-methyl-4-thiazolidinone, 1,1-dioxide], for which the inhibition in vivo at 50 mg/kg in assay [1] came to 8.7%. Also, the “Damage Score” value in assay [2] (setting [3]) is 2.1 ± 0.3.
As for `CCN1CSC(=Cc2cc(C(C)(C)C)c(O)c(C(C)(C)C)c2)C1=O` [Example 14, 5-{[3,5-Bis(1,1-dimethylethyl)-4-hydroxyphenyl]methylene}-3-ethyl-4-thiazolidinone], the inhibition in vivo at 50 mg/kg was determined as 6% in assay [1] and 43% with inflammation.
Turning to `CN1C[S+]([O-])C(=Cc2cc(C(C)(C)C)c(O)c(C(C)(C)C)c2)C1=O` (centres unmarked) [Example 12, 5-{[3,5-bis(1,1-dimethylethyl)-4-hydroxyphenyl]methylene}-3-methyl-4-thiazolidinone, 1-oxide], the inhibition in vivo at 50 mg/kg in assay [1] turned out to be 4.8%. In addition, the “Damage Score” value in assay [2] (setting [3]) is 1.8 ± 0.4.
For `CC(C)(C)c1cc(C=C2SCN(CC#N)C2=O)cc(C(C)(C)C)c1O` [Example 38, 5-{[3,5-bis(1,1-dimethylethyl)-4-hydroxyphenyl]methylene}-4-oxo-3-thiazolidineacetonitrile], the inhibition in vivo at 50 mg/kg in assay [1] amounted to 1.8%. For the same molecule, the “Damage Score” value in assay [2] (200 mg/kg given orally as a suspension in 2% acacia) stood at 1.6 ± 0.04.
`CC(=O)OCCN1CSC(=Cc2cc(C(C)(C)C)c(O)c(C(C)(C)C)c2)C1=O` [Example 26, 5-{[3,5-bis(1,1-dimethylethyl)-4-hydroxyphenyl]-methylene}-3-[2-(acetyloxy)ethyl]-4-thiazolidinone]: the inhibition in vivo at 50 mg/kg in assay [1] was 30.4%. The “Damage Score” value in assay [2] (setting [3]) turned out to be 1.9 ± 0.4.
For `CN(C)N1C[S+]([O-])C(=Cc2cc(C(C)(C)C)c(O)c(C(C)(C)C)c2)C1=O` (centres unmarked) [Example 22, 5-{[3,5-bis(1,1-dimethylethyl)-4-hydroxyphenyl]methylene}-3-(dimethylamino)-4-thiazolidinone, 1-oxide], in that order: 1% and 2.3 ± 0.3.
As for `CN(C)N1CSC(=Cc2cc(C(C)(C)C)c(O)c(C(C)(C)C)c2)C1=O` [Example 21, 5-{[3,5-bis(1,1-dimethylethyl)-4-hydroxyphenyl]methylene}-3-dimethylamino-4-thiazolidinone], the “Average Life Span” value in the assay with Dystrophic mice (dy/dy) (setting [4]) is recorded as 151 days. In addition, in assay [1], the inhibition in vivo at 50 mg/kg worked out at 81%. In addition, in assay [2] (setting [5]), the “Damage Score” value was 1.9 ± 0.3.
